The values below come from patent publication US3989835A, “Method of using 6-substituted amino phenyl-2,3,5,6-tetra-hydro[2,1-b]thiazoles for controlling gastrointestinal nematodes” (American Cyanamid Company, priority 1974, dated 1976).

“And” between values parts separate entries of the source, which are not always exact repeats. Equal entries are not always repeated. Where two headings read alike, the source gives them in different places.

For one data set, the system named is Trichuris vulpis. As to the kind of experiment: Oral or subcutaneous activity vs. mature Trichuris vulpis in dogs (critical test). It counts as in vivo. The method, then: (§1) Dogs infected with mature adult whipworms Trichuris vulpis were treated with various single or double doses of unsubstituted or substituted tetramisole analogs by the oral or subcutaneous route (Table XI hereinafter). Whipworms passed in the feces were collected for several days, and the whipworms still present determined at necropsy. Percent efficacy was determined in these "critical" tests. […] Trichuris is a type of nematode refactory to treatment with most prior anthelmintics at well tolerated doses. Taxonomically allied nematodes, e.g., Trichinella and Capillaria are also refractory to most anthelmintics.

The nature of data set [1]: in vivo. To be noted: dog. The method, then: as §1
Data set [2] in a line: in vivo. As to conditions: for Approx. LD50 /ED50: chemotherapeutic index, mouse oral, N. dubius; for LD50: mouse, in vivo, po; for Dead/Total: mice. The text has this: Data on the acute oral toxicity to mice of various single oral doses of the above compounds and several analogs were obtained by conventional procedures, (Table IX hereinafter).
The test system of the next data set is Nematospiroides dubius. As to the kind of experiment: Anthelmintic efficacy against N. dubius in mice, single oral dose. As to conditions: for inhibition in vivo at 1.25 mg/kg: single oral dose 1.25 mg./Kg.; for inhibition in vivo at 2 mg/kg: single oral dose 2.0 mg./Kg.; for inhibition in vivo at 4 mg/kg: single oral dose 4.0 mg./Kg.; for inhibition in vivo at 5 mg/kg: single oral dose 5.0 mg./Kg.; for inhibition in vivo at 10 mg/kg: single oral dose 10 mg./Kg. It counts as in vivo, Nematospiroides dubius (in albino female mice). As for the experimental part:
Albino female mice are each inoculated with about 20 infectious larvae of Nematospiroides dubius. This nematode is a representative of the economical important trichostrongylis worms of ruminants and other hosts, and of nematodes in general. Twenty-two days after inoculation, groups of four randomly selected mice containing adult N. dubius are given single oral doses of test compounds dissolved or suspended in 0.4 ml. of water per 20 gram mouse. At 26 or 27 days after inoculation, treated mice and in each test four randomly selected groups of untreated mice are necropsied. The number of worms in the small intestine of each mouse are determined by microscopic examination. Average worm numbers for each treated group and for the untreated controls are computed and the percent efficacy determined by the customary formula:
(Average Worms in Control - Average Worms in Treated)/(Average Worms in Control) X 100.

Setting [3] is: oral 5 Mg./Kg., based on total worms in all dogs.
Where [4] appears, read: Approx. LD50, mouse oral, Table IX.
[5] abbreviates: LD50, mice, adjusted to molar equivalents of tetramisole free base.
[6] abbreviates: Heligmosomoides polygyrus, po, as Base, single oral dose, mice, > indicates inactive at dose shown, read-out: Approx. ED50.
The mark [7] stands for this setting: Heligmosomoides polygyrus, po, mouse oral, Table IX, read-out: Approx. ED50 vs. N. dubius.
[8] abbreviates: Heligmosomoides polygyrus, po, molar-adjusted, read-out: Percent Nematospiroides Activity.
Setting [9] is: single oral dose 10 mg./kg., N. dubius, mice.

`Cl.Cl.Nc1cccc(C2CN3CCSC3=N2)c1` (racemic) [dl-m-aminotetramisole, 6-(m-Aminophenyl)-2,3,5,6-tetrahydroimidazo[2,1-b]thiazole Dihydrochloride]: the “% Efficacy SC” value came out at 92% in the data set on Trichuris vulpis (SC 2.5 Mg./Kg.) and 100% with Trichuris vulpis (SC 5 Mg./Kg.). Moreover, the “% Efficacy Orally” value in the data set on Trichuris vulpis (oral 2.5 Mg./Kg.) came to 99%; with Trichuris vulpis (setting [3]), 98%. Besides, the MTD in the data set “in vivo [1]” (po) amounted to 7.5 mg/kg; in “in vivo [1]” (sc) it was 5 mg/kg. In addition, in “in vivo [2]” (Table IX), the “Approx. LD50 /ED50” value is on record as 15. Moreover, the values for the LD50 in the data set “in vivo [2]” (setting [4]) and in the data set “in vivo [2]” (setting [5]) were 15 mg/kg and ~20 mg/kg, respectively. Besides, the Dead/Total is on record as 0/8 in the data set “in vivo [2]” (single oral dose 4-5 Mg./Kg.); 2/29 in “in vivo [2]” (single oral dose 10 Mg./Kg.); 7/14 in the data set “in vivo [2]” (single oral dose 15 Mg./Kg.); 10/12 in the data set “in vivo [2]” (single oral dose 20 Mg./Kg.); 4/4 in the data set “in vivo [2]” (single oral dose 40 Mg./Kg.). Besides, the ED50 in the data set on Nematospiroides dubius (setting [6]) is 1 mg/kg; in the data set with Nematospiroides dubius (setting [7]), 1 mg/kg; in the data set on Nematospiroides dubius (Heligmosomoides polygyrus, po, read-out: ED50 (approximate dose which removes 50% of the worms), N. dubius in mice, single oral dose) it was ~1 mg/kg. Also, the inhibition in vivo at 1.25 mg/kg in the data set with Nematospiroides dubius (setting [8]) came out at 57%. Further, the inhibition in vivo at 2 mg/kg with Nematospiroides dubius (setting [8]) was 92%. Also, the inhibition in vivo at 4 mg/kg in the data set on Nematospiroides dubius (setting [8]) came out at 100%. In addition, in the data set with Nematospiroides dubius (setting [8]), the inhibition in vivo at 5 mg/kg stood at 100%. Further, the inhibition in vivo at 10 mg/kg in the data set on Nematospiroides dubius (setting [8]) was 100%. Besides, the “superiority over tetramisole at dose required to attain 85 - 88% efficacy” value in the data set on Nematospiroides dubius (N. dubius in mice) is “approximately eightfold superiority”. The activity in words entry in the data set with Nematospiroides dubius (N. dubius in mice, oral) is recorded as “unusually high activity”; in the data set on Nematospiroides dubius (single dose oral ED50 against N. dubius in mice), “unexpected high activity”. Further, the “activity relative to tetramisole” value in the data set with Nematospiroides dubius (from ED50s against N. dubius in mice) is listed as “approximately nine times as active as tetramisole”. Also, the “Average % Efficacy” value is 5% in the data set on Nematospiroides dubius (single oral dose 0.5 mg./kg.); 50% with Nematospiroides dubius (single oral dose 1.00 mg./kg.); 81% with Nematospiroides dubius (single oral dose 1.25 mg./kg.); 85% in the data set on Nematospiroides dubius (single oral dose 2.0 mg./kg.); 100% with Nematospiroides dubius (single oral dose 4 mg./kg.); 100% with Nematospiroides dubius (single oral dose 5 mg./kg.). Further, in the data set with Nematospiroides dubius (setting [9]), the “Average % Efficacy” value is on record as 100%. The “% Efficacy per Group” value is 2% and 6% and 8% with Nematospiroides dubius (single oral dose 0.5 mg./kg., Dihydrochloride); 80% and 82% in the data set with Nematospiroides dubius (single oral dose 1.25 mg./kg., Dihydrochloride); 77% and 78% and 82% and 83% and 88% and 92% and 98% in the data set on Nematospiroides dubius (single oral dose 2.0 mg./kg., Dihydrochloride); 100% in the data set on Nematospiroides dubius (single oral dose 4 mg./kg.); 100% in the data set with Nematospiroides dubius (single oral dose 5 mg./kg.); 100% in the data set on Nematospiroides dubius (setting [9]).
Turning to `O=CNc1cccc(C2CN3CCSC3=N2)c1` (racemic) [m-NH--HCO dl, 3'-(2,3,5,6-Tetrahydroimidazo[2,1-b-]thiazol-6-yl)-formanilide], the “% Efficacy Orally” value in the data set on Trichuris vulpis (oral 1.25 Mg./Kg.) was 21%; in the data set with Trichuris vulpis (oral 2.5 Mg./Kg.) it was 83%; with Trichuris vulpis (setting [3]) it was 100%. The MTD in “in vivo [1]” (po) was 7.5 mg/kg; in “in vivo [1]” (sc) it was > 5 mg/kg. In the data set “in vivo [2]” (Table IX), the “Approx. LD50 /ED50” value is on record as 10. Also, the values for the LD50 in the data set “in vivo [2]” (setting [4]) and in the data set “in vivo [2]” (setting [5]) were 30 mg/kg and ~30 mg/kg, respectively. For the same molecule, the Dead/Total in “in vivo [2]” (single oral dose 4-5 Mg./Kg.) is reported as 0/8; in “in vivo [2]” (single oral dose 10 Mg./Kg.), 0/4; in “in vivo [2]” (single oral dose 20 Mg./Kg.), 1/10; in “in vivo [2]” (single oral dose 40 Mg./Kg.) it was 12/13. The ED50 in the data set with Nematospiroides dubius (setting [6]) and in the data set with Nematospiroides dubius (setting [7]) was 3 mg/kg in each case. Besides, the inhibition in vivo at 4 mg/kg in the data set with Nematospiroides dubius (setting [8]) amounted to 79%. Also, the inhibition in vivo at 10 mg/kg in the data set on Nematospiroides dubius (setting [8]) came to 97%.
As for `O=CNc1cccc(C2CN3CCSC3=N2)c1` (stereo not drawn) [HNCHO l-], the “% Efficacy Orally” value in the data set with Trichuris vulpis (oral 1.25 Mg./Kg.) stood at 46%. The “% Efficacy Orally” value with Trichuris vulpis (oral 2.5 Mg./Kg.) was determined as 100%. In “in vivo [1]” (po), the MTD came to 2.5 mg/kg. Also, in “in vivo [2]” (setting [5]), the LD50 was ~30 mg/kg. Further, in the data set with Nematospiroides dubius (setting [8]), the inhibition in vivo at 1.25 mg/kg is 61%, the inhibition in vivo at 2 mg/kg came to 72%, the inhibition in vivo at 5 mg/kg worked out at 95% and the inhibition in vivo at 10 mg/kg was found to be 100%.
With `CC(C)C(=O)Nc1cccc(C2CN3CCSC3=N2)c1.Cl` (stereo not drawn) [m-NH--CO--CH(CH3)2 dl, 3'-(2,3,5,6-tetrahydroimidazo[2,1-b]thiazol-6-yl)isobutyranilide hydrochloride], in the data set “in vivo [2]” (Table IX), the “Approx. LD50 /ED50” value amounted to 20. Besides, the figures for the 50% lethal dose (LD50) in “in vivo [2]” (setting [4]) and in “in vivo [2]” (setting [5]) were ~60 mg/kg and ~75 mg/kg, respectively. The values for the Dead/Total in the data set “in vivo [2]” (single oral dose 40 Mg./Kg.), in the data set “in vivo [2]” (single oral dose 80 Mg./Kg.) and in the data set “in vivo [2]” (single oral dose 120 Mg./Kg.) were 1/6, 5/6 and 6/6, respectively. Moreover, the ED50 in the data set on Nematospiroides dubius (setting [6]) and with Nematospiroides dubius (setting [7]) was 3 mg/kg in each case. Besides, the inhibition in vivo at 5 mg/kg with Nematospiroides dubius (setting [8]) was determined as 99%. Further, the inhibition in vivo at 10 mg/kg in the data set with Nematospiroides dubius (setting [8]) is 100%. Moreover, the inhibition in vivo at 20 mg/kg in the data set on Nematospiroides dubius (Heligmosomoides polygyrus, po, single oral dose 20 mg./Kg., molar-adjusted, read-out: Percent Nematospiroides Activity) stood at 100%.

The LD50 is the dose expected to kill half of the subjects tested. As usually defined, the ED50 is the dose that gives a 50% effect, or the effect in half of the subjects.
